Literature values as cited in article PMC4562162 (CPT: Pharmacometrics & Systems Pharmacology, 2015).

System: CETP

CCC(CC)CC1(C(=O)Nc2ccccc2SC(=O)C(C)C)CCCCC1 [Dalcetrapib]
effect on LDL-C levels: minimal effects on LDL-C levels
